We go through 13 compounds from ChEMBL document CHEMBL5131481, “Topoisomerase IIα inhibitory and antiproliferative activity of dihydroxylated 2,6-diphenyl-4-fluorophenylpyridines: Design, synthesis, and structure-activity relationships” (Bioorg Med Chem Lett, 2022).

Assay [1] has as its target DNA topoisomerase 2-alpha (Homo sapiens) (UniProt P11388). The assay can be described thus: Inhibition of topoisomerase 2alpha (unknown origin) assessed as relaxation of supercoiled plasmid pBR322 DNA at 100 uM relative to control.
The target is the same in assay [2]. Description: Inhibition of topoisomerase 2alpha (unknown origin) assessed as relaxation of supercoiled plasmid pBR322 DNA at 20 uM relative to control.
For the next assay, the system named is DU-145. The assay can be described thus: Antiproliferative activity against human DU-145 cells assessed as inhibition of cell proliferation. It is filed as functional, cell-based.
For another assay, the system named is HCT-15. Description: Antiproliferative activity against human HCT-15 cells assessed as inhibition of cell proliferation. The format is functional, cell-based.
The test system of the next assay is T47D. The assay can be described thus: Antiproliferative activity against human T47D cells assessed as inhibition of cell proliferation. The format is functional, cell-based.
In another assay the test system is HeLa. Description: Antiproliferative activity against human HeLa cells assessed as inhibition of cell proliferation. The format is functional, cell-based.

Where only a bound is given, the exact number is not on record here.

The term inhibition denotes how much of the control response was suppressed. Usually IC50 stands for the concentration that inhibits the measured activity by half.

Chain of DNA topoisomerase 2-alpha (Homo sapiens) (P11388 whole entry): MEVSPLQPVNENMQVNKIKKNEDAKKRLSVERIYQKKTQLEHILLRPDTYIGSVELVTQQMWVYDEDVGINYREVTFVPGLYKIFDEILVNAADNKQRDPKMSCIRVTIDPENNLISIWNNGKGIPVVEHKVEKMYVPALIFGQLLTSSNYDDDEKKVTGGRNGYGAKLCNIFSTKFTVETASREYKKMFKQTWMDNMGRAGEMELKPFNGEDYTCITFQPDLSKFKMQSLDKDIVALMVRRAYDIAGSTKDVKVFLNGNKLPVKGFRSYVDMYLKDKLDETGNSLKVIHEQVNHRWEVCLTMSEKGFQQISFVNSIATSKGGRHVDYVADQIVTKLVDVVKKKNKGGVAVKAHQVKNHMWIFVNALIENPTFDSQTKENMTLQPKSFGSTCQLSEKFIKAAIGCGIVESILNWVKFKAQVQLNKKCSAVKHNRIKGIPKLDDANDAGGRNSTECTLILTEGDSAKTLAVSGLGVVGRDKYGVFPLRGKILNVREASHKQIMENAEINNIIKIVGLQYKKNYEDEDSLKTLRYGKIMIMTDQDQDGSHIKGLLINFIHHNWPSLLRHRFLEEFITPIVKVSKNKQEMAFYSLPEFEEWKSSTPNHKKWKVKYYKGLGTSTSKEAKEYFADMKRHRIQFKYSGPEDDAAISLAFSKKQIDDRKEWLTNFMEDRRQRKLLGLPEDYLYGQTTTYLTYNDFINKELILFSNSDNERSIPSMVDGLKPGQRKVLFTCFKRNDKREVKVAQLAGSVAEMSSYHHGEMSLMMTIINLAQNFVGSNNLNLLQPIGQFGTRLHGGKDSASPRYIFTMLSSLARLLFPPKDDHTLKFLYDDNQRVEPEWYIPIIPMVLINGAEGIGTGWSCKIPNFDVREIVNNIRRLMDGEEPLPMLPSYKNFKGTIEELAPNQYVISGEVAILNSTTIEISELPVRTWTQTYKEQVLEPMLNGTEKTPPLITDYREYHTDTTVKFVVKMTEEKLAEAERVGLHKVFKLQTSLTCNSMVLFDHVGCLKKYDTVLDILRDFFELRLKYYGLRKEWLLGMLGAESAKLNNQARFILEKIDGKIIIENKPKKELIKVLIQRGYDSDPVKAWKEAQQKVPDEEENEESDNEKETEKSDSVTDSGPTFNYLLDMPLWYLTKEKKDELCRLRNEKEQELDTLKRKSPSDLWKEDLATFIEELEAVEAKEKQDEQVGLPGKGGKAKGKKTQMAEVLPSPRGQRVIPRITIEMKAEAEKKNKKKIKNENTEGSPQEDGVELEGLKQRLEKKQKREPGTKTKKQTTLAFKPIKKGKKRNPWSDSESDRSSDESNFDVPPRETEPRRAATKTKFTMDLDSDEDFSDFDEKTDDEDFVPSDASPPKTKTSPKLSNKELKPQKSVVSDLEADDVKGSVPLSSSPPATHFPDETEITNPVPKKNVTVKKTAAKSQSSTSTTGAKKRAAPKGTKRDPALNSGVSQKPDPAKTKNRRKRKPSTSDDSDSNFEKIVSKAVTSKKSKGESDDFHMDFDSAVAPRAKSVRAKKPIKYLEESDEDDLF

With `Oc1cccc(-c2cc(-c3ccccc3F)cc(-c3cccc(O)c3)n2)c1`, the inhibition was 31.1% in assay [1] and 10.8% in assay [2]. Also, the IC50 in the assay on DU-145 worked out at 11.2 µM; with HCT-15, 5.3 µM; with T47D, 4.37 µM; in the assay on HeLa it was 16 µM.
Regarding `Oc1ccc(-c2cc(-c3ccccc3C(F)(F)F)cc(-c3cccc(O)c3)n2)cc1`, the inhibition in assay [1] was found to be 61.9%; in assay [2], 2.2%. The IC50 stood at 2.75 µM with DU-145, 5.74 µM with HCT-15, 3.21 µM with T47D and 17.4 µM in the assay with HeLa.
`Oc1ccc(-c2cc(-c3cccc(OC(F)(F)F)c3)cc(-c3cccc(O)c3)n2)cc1`: the inhibition in assay [1] turned out to be 43.4%; in assay [2], 7.4%. Besides, the IC50 in the assay with DU-145 turned out to be 5.67 µM; in the assay on HCT-15, 1.73 µM; with T47D, 5.04 µM; with HeLa, 14.1 µM.
`Oc1ccc(-c2cc(-c3ccccc3F)cc(-c3cccc(O)c3)n2)cc1`: the inhibition in assay [1] worked out at 76.6%; in assay [2], 42.1%. For the same compound, the IC50 in the assay on DU-145 worked out at 3.16 µM; in the assay with HCT-15 it was 5.63 µM; with T47D it was 6.37 µM; with HeLa, 14.3 µM.
Take `Oc1ccc(-c2cc(-c3ccccc3OC(F)(F)F)cc(-c3ccc(O)cc3)n2)cc1`: the results for the inhibition in assay [1] and in assay [2] were 42.2% and 4.3%, respectively. Also, the IC50 in the assay on DU-145 came to 16 µM; with HCT-15, 7.76 µM; with T47D, 9.84 µM; in the assay on HeLa, 44.6 µM.
`Oc1ccc(-c2cc(-c3ccc(OC(F)(F)F)cc3)cc(-c3ccc(O)cc3)n2)cc1`: the inhibition amounted to 59% in assay [1] and 6.4% in assay [2]. Besides, the concentration for half-maximal inhibition (IC50) with DU-145 worked out at 5.39 µM; in the assay with HCT-15, 13.9 µM; in the assay on T47D, 5.15 µM; with HeLa it was 16.9 µM.
For `Oc1ccc(-c2cc(-c3ccc(F)cc3)cc(-c3ccc(O)cc3)n2)cc1`, the inhibition in assay [1] turned out to be 97.1%; in assay [2], 42.5%. Further, the IC50 with DU-145 stood at 6.03 µM; with HCT-15 it was 4.97 µM; in the assay with T47D it was 5.26 µM; in the assay on HeLa it was 8.68 µM.
`COc1cc([C@@H]2c3cc4c(cc3[C@@H](O[C@@H]3O[C@@H]5CO[C@@H](C)O[C@H]5[C@H](O)[C@H]3O)[C@H]3COC(=O)[C@H]23)OCO4)cc(OC)c1O` [ETOPOSIDE]: the inhibition in assay [2] came to 21.2%. In addition, the half-maximal inhibitory concentration (IC50) with DU-145 stood at 7.47 µM; in the assay with T47D it was 5.82 µM; in the assay with HeLa, 7.01 µM.
Regarding `Oc1ccc(-c2cc(-c3cccc(C(F)(F)F)c3)cc(-c3ccccc3O)n2)cc1`, in assay [1], the inhibition is 0.1%. The IC50 in the assay with DU-145, in the assay with HCT-15, in the assay on T47D and with HeLa was greater than 50 µM in each case.
For the compound `Oc1cccc(-c2cc(-c3ccccc3C(F)(F)F)cc(-c3ccccc3O)n2)c1`, the inhibition in assay [1] stood at 2.6%. Moreover, the IC50 in the assay on DU-145 came out at 7.25 µM; in the assay with HCT-15 it was 9.01 µM; with T47D, 5.68 µM; in the assay on HeLa, 16.8 µM.
As to `Oc1cccc(-c2cc(-c3cccc(OC(F)(F)F)c3)cc(-c3ccccc3O)n2)c1`, in assay [1], the inhibition was 0%. Further, the IC50 is greater than 50 µM with DU-145, 2.74 µM in the assay on HCT-15, 5.39 µM with T47D and 14.9 µM in the assay with HeLa.
For `Oc1ccc(-c2cc(-c3ccccc3F)cc(-c3ccc(O)cc3)n2)cc1`, in that order: 0%, 7.78 µM, 8.18 µM, 15.1 µM and greater than 50 µM.
Take `Oc1cccc(-c2cc(-c3cccc(C(F)(F)F)c3)cc(-c3ccccc3O)n2)c1`: in assay [1], the inhibition stood at 0.6%. Also, the IC50 came out at 13 µM with DU-145, 6.46 µM in the assay with HCT-15, 6.34 µM in the assay on T47D and 19.5 µM with HeLa.
